Data on 24 molecules can be found in ChEMBL document CHEMBL3425509, “Design, synthesis, and biological evaluation of benzofuran- and 2,3-dihydrobenzofuran-2-carboxylic acid N-(substituted)phenylamide derivatives as anticancer agents and inhibitors of NF-κB” (Bioorg Med Chem Lett, 2015).

Assay [1] has as its target Nuclear factor NF-kappa-B complex (Homo sapiens) (UniProt Q00653+P19838+Q04206). The assay is described as follows: Inhibition of NF-kappaB (unknown origin) transcriptional activity in LPS-induced mouse RAW264.7 cells at 30 uM after 1 hr by secreted alkaline phosphatase assay relative to control. In kind it is cell-based.
The target of assay [2] is Nuclear factor NF-kappa-B complex (Homo sapiens, UniProt P19838+Q00653+Q04206). The experiment in a line: Inhibition of NF-kappaB (unknown origin) transcriptional activity in LPS-induced mouse RAW264.7 cells after 1 hr by secreted alkaline phosphatase assay. It is filed as cell-based.
Assay [3] can be described thus: Cytotoxicity against human PC3 cells assessed as cell viability at 10 uM after 72 hrs by sulforhodamine B assay relative to control. It is filed as functional. To be noted: PC-3, 72 h, read-out: Activity. (In general: Sulforhodamine B stains cellular protein and so reports cell mass.)
The subject of assay [4] is MDA-MB-231. The experiment in a line: Cytotoxicity against human MDA-MB-231 cells assessed as cell viability at 10 uM after 72 hrs by sulforhodamine B assay relative to control. It is filed as functional. As to conditions: MDA-MB-231, 72 h, read-out: Activity.
The test system of assay [5] is ACHN. The assay is described as follows: Cytotoxicity against human ACHN cells assessed as cell viability at 10 uM after 72 hrs by sulforhodamine B assay relative to control. In kind it is functional. To be noted: read-out: Activity.
Assay [6] has as its system NCI-H23. The experiment in a line: Cytotoxicity against human NCI-H23 cells assessed as cell viability at 10 uM after 72 hrs by sulforhodamine B assay relative to control. It is filed as functional. To be noted: NCI-H23, 72 h, read-out: Activity.
Assay [7] can be described thus: Cytotoxicity against human HCT15 cells assessed as cell viability at 10 uM after 72 hrs by sulforhodamine B assay relative to control. In kind it is functional. To be noted: HCT-15, 72 h, read-out: Activity.
Assay [8] can be described thus: Cytotoxicity against human NUGC3 cells assessed as cell viability at 10 uM after 72 hrs by sulforhodamine B assay relative to control. It is filed as functional. As to conditions: NUGC-3, 72 h, read-out: Activity.
Assay [9] is described as follows: Cytotoxicity against human PC3 cells assessed as growth inhibition after 72 hrs by sulforhodamine B assay. It is filed as functional. As to conditions: PC-3, 72 h.
Assay [10] deals with MDA-MB-231. The assay is described as follows: Cytotoxicity against human MDA-MB-231 cells assessed as growth inhibition after 72 hrs by sulforhodamine B assay. In kind it is functional. To be noted: MDA-MB-231, 72 h.
A short description of assay [11]: Cytotoxicity against human NUGC3 cells assessed as growth inhibition after 72 hrs by sulforhodamine B assay. As to conditions: NUGC-3, 72 h. In kind it is functional.
Assay [12] in a line: Cytotoxicity against human HCT15 cells assessed as growth inhibition after 72 hrs by sulforhodamine B assay. In kind it is functional. To be noted: HCT-15, 72 h.
The subject of assay [13] is NCI-H23. The experiment in a line: Cytotoxicity against human NCI-H23 cells assessed as growth inhibition after 72 hrs by sulforhodamine B assay. It is filed as functional. As to conditions: NCI-H23, 72 h.
Assay [14] relates to ACHN. The experiment in a line: Cytotoxicity against human ACHN cells assessed as growth inhibition after 72 hrs by sulforhodamine B assay. In kind it is functional.

Sequence of Nuclear factor NF-kappa-B complex (P19838 1-433 limits assumed): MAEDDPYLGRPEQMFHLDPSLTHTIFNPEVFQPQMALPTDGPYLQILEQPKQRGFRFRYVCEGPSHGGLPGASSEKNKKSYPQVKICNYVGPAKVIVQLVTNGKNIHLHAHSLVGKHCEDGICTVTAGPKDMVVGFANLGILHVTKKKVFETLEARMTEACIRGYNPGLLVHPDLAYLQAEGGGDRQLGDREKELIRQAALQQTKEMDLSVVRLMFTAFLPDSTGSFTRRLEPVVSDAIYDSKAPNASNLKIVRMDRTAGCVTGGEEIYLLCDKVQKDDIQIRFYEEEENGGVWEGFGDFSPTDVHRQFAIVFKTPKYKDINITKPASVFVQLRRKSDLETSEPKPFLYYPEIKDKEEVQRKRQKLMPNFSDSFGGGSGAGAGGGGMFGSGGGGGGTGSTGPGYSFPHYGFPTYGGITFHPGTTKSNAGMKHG
Sequence of Nuclear factor NF-kappa-B complex (Q00653 1-454 limits assumed): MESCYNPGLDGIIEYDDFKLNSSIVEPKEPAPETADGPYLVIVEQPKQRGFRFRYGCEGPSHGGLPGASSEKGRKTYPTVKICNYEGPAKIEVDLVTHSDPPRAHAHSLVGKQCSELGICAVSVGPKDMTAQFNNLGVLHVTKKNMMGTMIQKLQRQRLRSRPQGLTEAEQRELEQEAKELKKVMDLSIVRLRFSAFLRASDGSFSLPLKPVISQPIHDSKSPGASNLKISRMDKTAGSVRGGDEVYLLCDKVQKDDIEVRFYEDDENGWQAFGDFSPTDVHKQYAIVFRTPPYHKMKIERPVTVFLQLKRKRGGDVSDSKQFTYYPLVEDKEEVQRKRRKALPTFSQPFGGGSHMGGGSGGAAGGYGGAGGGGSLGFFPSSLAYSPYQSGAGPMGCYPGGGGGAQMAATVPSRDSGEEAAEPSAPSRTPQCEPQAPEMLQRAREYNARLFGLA
Sequence of Nuclear factor NF-kappa-B complex (Q04206 whole entry): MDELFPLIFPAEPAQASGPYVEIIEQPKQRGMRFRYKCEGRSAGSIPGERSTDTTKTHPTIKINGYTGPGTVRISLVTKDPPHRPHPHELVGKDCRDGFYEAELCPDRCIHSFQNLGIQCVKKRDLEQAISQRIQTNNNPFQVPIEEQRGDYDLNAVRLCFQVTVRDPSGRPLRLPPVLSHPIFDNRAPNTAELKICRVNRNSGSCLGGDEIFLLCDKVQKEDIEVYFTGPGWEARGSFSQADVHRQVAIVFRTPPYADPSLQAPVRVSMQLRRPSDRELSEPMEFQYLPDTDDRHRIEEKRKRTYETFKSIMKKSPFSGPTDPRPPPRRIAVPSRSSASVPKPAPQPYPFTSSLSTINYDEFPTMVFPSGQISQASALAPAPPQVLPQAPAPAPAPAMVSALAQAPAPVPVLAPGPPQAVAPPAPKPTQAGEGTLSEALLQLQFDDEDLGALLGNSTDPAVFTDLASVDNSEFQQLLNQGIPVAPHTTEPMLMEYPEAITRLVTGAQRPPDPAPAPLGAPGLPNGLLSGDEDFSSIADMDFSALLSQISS
Sequence of Nuclear factor NF-kappa-B complex (Homo sapiens) (P19838 whole entry, looked up): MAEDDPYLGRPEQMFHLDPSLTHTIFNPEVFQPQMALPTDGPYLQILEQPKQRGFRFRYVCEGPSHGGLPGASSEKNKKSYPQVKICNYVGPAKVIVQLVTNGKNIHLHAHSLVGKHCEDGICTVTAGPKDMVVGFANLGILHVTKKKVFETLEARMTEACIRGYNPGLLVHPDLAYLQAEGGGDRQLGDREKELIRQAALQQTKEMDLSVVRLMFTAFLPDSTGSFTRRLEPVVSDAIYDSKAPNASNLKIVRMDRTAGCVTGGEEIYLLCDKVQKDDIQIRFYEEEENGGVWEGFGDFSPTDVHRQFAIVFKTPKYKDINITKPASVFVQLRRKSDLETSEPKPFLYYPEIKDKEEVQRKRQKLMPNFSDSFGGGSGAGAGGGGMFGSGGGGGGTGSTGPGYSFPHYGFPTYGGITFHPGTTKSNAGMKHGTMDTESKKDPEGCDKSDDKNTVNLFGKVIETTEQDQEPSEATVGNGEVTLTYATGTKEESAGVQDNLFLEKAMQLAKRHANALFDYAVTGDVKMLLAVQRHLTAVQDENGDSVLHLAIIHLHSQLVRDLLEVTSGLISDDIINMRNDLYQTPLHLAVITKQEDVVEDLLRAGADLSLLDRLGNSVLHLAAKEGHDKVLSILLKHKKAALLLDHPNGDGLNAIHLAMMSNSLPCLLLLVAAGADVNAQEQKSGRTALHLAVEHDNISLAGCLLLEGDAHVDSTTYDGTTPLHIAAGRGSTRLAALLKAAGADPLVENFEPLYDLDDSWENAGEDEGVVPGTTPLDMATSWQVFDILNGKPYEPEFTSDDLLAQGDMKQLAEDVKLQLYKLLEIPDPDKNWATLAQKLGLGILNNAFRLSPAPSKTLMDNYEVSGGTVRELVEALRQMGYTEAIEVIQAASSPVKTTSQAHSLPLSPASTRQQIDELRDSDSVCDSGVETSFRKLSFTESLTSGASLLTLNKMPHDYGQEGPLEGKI
Sequence of Nuclear factor NF-kappa-B complex (Homo sapiens) (Q00653 whole entry, looked up): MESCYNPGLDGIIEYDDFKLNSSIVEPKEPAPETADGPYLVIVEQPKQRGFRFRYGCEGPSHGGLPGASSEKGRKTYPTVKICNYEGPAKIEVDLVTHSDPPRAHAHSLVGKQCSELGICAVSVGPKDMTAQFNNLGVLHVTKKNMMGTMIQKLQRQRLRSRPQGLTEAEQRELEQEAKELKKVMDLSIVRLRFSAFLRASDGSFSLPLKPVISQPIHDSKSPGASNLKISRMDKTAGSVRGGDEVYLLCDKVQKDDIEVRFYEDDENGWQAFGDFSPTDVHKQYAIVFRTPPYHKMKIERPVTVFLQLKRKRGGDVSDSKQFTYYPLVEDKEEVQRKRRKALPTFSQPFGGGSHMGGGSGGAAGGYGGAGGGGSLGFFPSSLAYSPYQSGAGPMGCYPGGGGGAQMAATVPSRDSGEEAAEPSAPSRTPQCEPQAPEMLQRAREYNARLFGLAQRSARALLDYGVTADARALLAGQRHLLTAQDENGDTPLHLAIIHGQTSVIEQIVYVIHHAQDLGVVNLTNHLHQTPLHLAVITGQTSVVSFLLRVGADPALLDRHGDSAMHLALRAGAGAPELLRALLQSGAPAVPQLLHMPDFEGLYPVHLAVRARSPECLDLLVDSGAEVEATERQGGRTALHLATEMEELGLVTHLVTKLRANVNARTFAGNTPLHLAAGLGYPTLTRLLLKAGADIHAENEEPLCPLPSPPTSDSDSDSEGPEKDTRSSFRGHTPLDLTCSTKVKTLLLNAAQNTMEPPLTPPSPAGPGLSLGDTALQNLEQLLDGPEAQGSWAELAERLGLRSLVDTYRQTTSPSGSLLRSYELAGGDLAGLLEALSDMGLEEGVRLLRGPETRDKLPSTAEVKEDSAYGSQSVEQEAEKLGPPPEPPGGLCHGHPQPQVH
Sequence of Nuclear factor NF-kappa-B complex (Homo sapiens) (Q04206 whole entry, looked up): as the sequence (Q04206 whole entry) above

For `O=C(Nc1cc(C(F)(F)F)cc(C(F)(F)F)c1)c1cc2ccccc2o1`, the inhibition – broadly, how much of the control response was suppressed – in [1] worked out at 51.5%. Moreover, the IC50 – broadly, the midpoint of a concentration-inhibition curve – in assay [2] turned out to be 34000 nM. Further, the viability at 10 µM in [3] came out at 110%; in the assay on MDA-MB-231 [4], 98%; in the assay with ACHN [5], 95%; with NCI-H23 [6], 101%; in [7], 98%; in [8], 98%.

Take `O=C(Nc1cccc(O)c1)C1Cc2ccccc2O1` (stereo unspecified): the inhibition in assay [1] came out at 17%. Moreover, the viability at 10 µM came to 4% in assay [3]; 63% in the assay on MDA-MB-231 [4]; 125% in the assay with ACHN [5]; 60% in the assay with NCI-H23 [6]; 97% in assay [7]; 110% in [8]. Also, the GI50 – broadly, the concentration giving 50% growth inhibition – in assay [9] amounted to 3970 nM.

As to `Cc1cc(C)cc(NC(=O)C2Cc3ccccc3O2)c1` (stereo unspecified), the inhibition in assay [1] was 34%. Also, the viability at 10 µM in assay [3] is 94%; with MDA-MB-231 [4] it was 97%; with ACHN [5], 136%; in the assay with NCI-H23 [6], 97%; in assay [7] it was 91%; in assay [8], 95%.

In turn, `COc1ccc(OC)c(NC(=O)C2Cc3ccccc3O2)c1` (stereo unspecified) registered an inhibition in assay [1] of 39.5%. Besides, the viability at 10 µM in [3] worked out at 81%; in the assay on MDA-MB-231 [4] it was 89%; in the assay on ACHN [5], 126%; in the assay with NCI-H23 [6], 99%; in assay [7] it was 97%; in assay [8], 95%.

With `O=C(Nc1ccccc1Cl)c1cc2ccccc2o1`, the inhibition in assay [1] turned out to be 49.5%. Also, the viability at 10 µM worked out at 91% in [3]; 76% in the assay on MDA-MB-231 [4]; 76% in the assay with ACHN [5]; 91% in the assay with NCI-H23 [6]; 75% in assay [7]; 86% in assay [8].

On to `COc1cccc(NC(=O)C2Cc3ccccc3O2)c1` (stereo unspecified), for which, in assay [1], the inhibition was found to be 16.5%. The viability at 10 µM in assay [3] amounted to 89%; with MDA-MB-231 [4], 80%; with ACHN [5], 135%; in the assay on NCI-H23 [6], 102%; in assay [7] it was 99%; in [8] it was 106%.

In turn, `COc1cc2c(cc1O)CCC(C(=O)Nc1ccccc1)O2` (stereo unspecified) had an IC50 in assay [2] of 37200 nM. Also, the viability at 10 µM in assay [3] came out at 90%; in the assay on MDA-MB-231 [4], 81%; in the assay on ACHN [5] it was 109%; with NCI-H23 [6], 86%; in [7], 105%; in [8], 99%.

In assay [1], `O=C(Nc1cc(Cl)ccc1Cl)C1Cc2ccccc2O1` (stereo unspecified) showed an inhibition of 42.5%. For the same molecule, the viability at 10 µM came out at 84% in assay [3]; 74% in the assay on MDA-MB-231 [4]; 101% in the assay with ACHN [5]; 90% in the assay with NCI-H23 [6]; 77% in assay [7]; 105% in assay [8].

On to `O=C(Nc1cccc([N+](=O)[O-])c1)c1cc2ccccc2o1`, for which the inhibition in [1] worked out at 11%. The viability at 10 µM worked out at 95% in [3]; 111% in the assay on MDA-MB-231 [4]; 93% in the assay on ACHN [5]; 99% with NCI-H23 [6]; 88% in [7]; 98% in [8].

`O=C(Nc1ccc(Cl)c(Cl)c1)C1Cc2ccccc2O1` (stereo unspecified) returned an inhibition in assay [1] of 65%. The molecule also registered an IC50 in [2] of 23000 nM. In addition, the viability at 10 µM came to 99% in assay [3]; 98% in the assay on MDA-MB-231 [4]; 109% with ACHN [5]; 94% in the assay on NCI-H23 [6]; 88% in [7]; 107% in [8].

In assay [1], `O=C(Nc1cc(Cl)cc(Cl)c1)C1Cc2ccccc2O1` (stereo unspecified) returned an inhibition of 75%. For the same molecule, the viability at 10 µM in assay [3] was 89%; in the assay on MDA-MB-231 [4], 89%; with ACHN [5], 89%; with NCI-H23 [6], 99%; in assay [7], 98%; in [8], 114%.

As to `O=C(Nc1ccc([N+](=O)[O-])cc1)C1Cc2ccccc2O1` (stereo unspecified), the inhibition in assay [1] came to 34%. In addition, the viability at 10 µM in [3] came out at 10%; in the assay with MDA-MB-231 [4] it was 85%; with ACHN [5], 93%; in the assay on NCI-H23 [6], 77%; in assay [7], 81%; in assay [8], 86%. In addition, the GI50 in assay [9] is 1860 nM.

Consider `COc1ccccc1NC(=O)C1Cc2ccccc2O1` (stereo unspecified), for which the inhibition in assay [1] was 29%. Moreover, the viability at 10 µM in assay [3] was determined as 88%; with MDA-MB-231 [4], 89%; in the assay with ACHN [5], 134%; with NCI-H23 [6] it was 111%; in assay [7], 100%; in [8], 111%.

Consider `Cc1ccccc1NC(=O)c1cc2ccccc2o1`, for which the inhibition in assay [1] was 46%. Also, the viability at 10 µM is 100% in [3]; 101% with MDA-MB-231 [4]; 106% with ACHN [5]; 89% in the assay on NCI-H23 [6]; 93% in assay [7]; 98% in assay [8].

Regarding `O=C(Nc1ccc(O)cc1)C1Cc2ccccc2O1` (stereo unspecified), the inhibition in assay [1] was found to be 18.5%. For the same molecule, the viability at 10 µM in assay [3] is 98%; in the assay with MDA-MB-231 [4], 91%; in the assay on ACHN [5], 122%; in the assay with NCI-H23 [6], 106%; in assay [7], 88%; in [8] it was 102%.

For `Cc1ccc(NC(=O)C2Cc3ccccc3O2)cc1` (stereo unspecified), the inhibition in [1] stood at 34.5%. In addition, the viability at 10 µM in assay [3] is 80%; in the assay on MDA-MB-231 [4], 96%; in the assay on ACHN [5], 134%; in the assay on NCI-H23 [6], 105%; in assay [7], 100%; in [8], 112%.

`O=C(Nc1ccccc1C(F)(F)F)C1Cc2ccccc2O1` (stereo unspecified): the inhibition in assay [1] came out at 44.5%. Besides, the viability at 10 µM was determined as 74% in assay [3]; 98% in the assay on MDA-MB-231 [4]; 136% with ACHN [5]; 102% in the assay on NCI-H23 [6]; 98% in assay [7]; 103% in assay [8].

Regarding `COc1cccc2c1C(=O)c1c(O)c3c(c(O)c1C2=O)C[C@@](O)(C(=O)CO)C[C@@H]3O[C@H]1C[C@H](N)[C@H](O)[C@H](C)O1` [DOXORUBICIN], the GI50 with MDA-MB-231 [10] came out at 560 nM; in [11], 190 nM; in assay [12], 450 nM; in the assay with NCI-H23 [13] it was 400 nM; with ACHN [14], 200 nM; in [9], 910 nM.

As for `COc1cc(NC(=O)c2cc3ccccc3o2)cc(OC)c1`, the inhibition in assay [1] is 63%. The viability at 10 µM in assay [3] came to 92%; with MDA-MB-231 [4], 106%; with ACHN [5], 102%; in the assay on NCI-H23 [6], 102%; in [7], 95%; in assay [8] it was 90%.

With `O=C(Nc1ccc(C(F)(F)F)cc1)C1Cc2ccccc2O1` (stereo unspecified), the inhibition in [1] came out at 41%. In addition, the viability at 10 µM in assay [3] came to 60%; in the assay with MDA-MB-231 [4] it was 82%; in the assay on ACHN [5] it was 124%; in the assay on NCI-H23 [6] it was 97%; in [7] it was 96%; in [8], 99%.

For the molecule `O=C(Nc1cccc([N+](=O)[O-])c1)C1Cc2ccccc2O1` (stereo unspecified), the inhibition in [1] stood at 40%. Further, the viability at 10 µM in assay [3] was 77%; in the assay with MDA-MB-231 [4], 92%; with ACHN [5], 109%; with NCI-H23 [6], 95%; in [7], 83%; in [8] it was 83%.

Turning to `COc1ccc(OC)c(NC(=O)c2cc3ccccc3o2)c1`, in [1], the inhibition amounted to 23%. Also, the viability at 10 µM in assay [3] came to 106%; in the assay with MDA-MB-231 [4], 101%; with ACHN [5] it was 102%; with NCI-H23 [6] it was 103%; in assay [7], 97%; in assay [8], 91%.

Molecule `Cc1cccc(NC(=O)C2Cc3ccccc3O2)c1` (stereo unspecified) showed an inhibition in assay [1] of 25%. In addition, the viability at 10 µM in assay [3] is 96%; in the assay on MDA-MB-231 [4], 95%; with ACHN [5], 145%; with NCI-H23 [6], 98%; in assay [7], 99%; in [8], 108%.

The molecule `O=C(Nc1ccccc1O)C1Cc2ccccc2O1` (stereo unspecified) had an inhibition in assay [1] of 20.5%. Further, the viability at 10 µM in assay [3] stood at 109%; with MDA-MB-231 [4], 83%; in the assay on ACHN [5], 134%; in the assay with NCI-H23 [6], 102%; in assay [7], 102%; in assay [8] it was 103%.
